Source: patent publication US11192891B2, “Diazaspiro ROCK inhibitors” (BRISTOL-MYERS SQUIBB COMPANY, priority 2017, dated 2021)

Each molecule was assayed against ROCK2 (Homo sapiens, UniProt O75116) (assay: ROCK kinase inhibition assay, FITC peptide substrate, LABCHIP 3000 readout). Conditions: 5 μM ATP, 1.5 μM peptide substrate.
Assay type: biochemical
Summary of the method: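 Tested across a concentration range, with percent inhibition of kinase activity derived per concentration. Peptide phosphorylation, initiated by adding the Rho kinase variant (final DMSO <2%), was quenched with EDTA and substrate/product resolved by mobility shift.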

Chain of ROCK2 (O75116 whole entry, species assumed): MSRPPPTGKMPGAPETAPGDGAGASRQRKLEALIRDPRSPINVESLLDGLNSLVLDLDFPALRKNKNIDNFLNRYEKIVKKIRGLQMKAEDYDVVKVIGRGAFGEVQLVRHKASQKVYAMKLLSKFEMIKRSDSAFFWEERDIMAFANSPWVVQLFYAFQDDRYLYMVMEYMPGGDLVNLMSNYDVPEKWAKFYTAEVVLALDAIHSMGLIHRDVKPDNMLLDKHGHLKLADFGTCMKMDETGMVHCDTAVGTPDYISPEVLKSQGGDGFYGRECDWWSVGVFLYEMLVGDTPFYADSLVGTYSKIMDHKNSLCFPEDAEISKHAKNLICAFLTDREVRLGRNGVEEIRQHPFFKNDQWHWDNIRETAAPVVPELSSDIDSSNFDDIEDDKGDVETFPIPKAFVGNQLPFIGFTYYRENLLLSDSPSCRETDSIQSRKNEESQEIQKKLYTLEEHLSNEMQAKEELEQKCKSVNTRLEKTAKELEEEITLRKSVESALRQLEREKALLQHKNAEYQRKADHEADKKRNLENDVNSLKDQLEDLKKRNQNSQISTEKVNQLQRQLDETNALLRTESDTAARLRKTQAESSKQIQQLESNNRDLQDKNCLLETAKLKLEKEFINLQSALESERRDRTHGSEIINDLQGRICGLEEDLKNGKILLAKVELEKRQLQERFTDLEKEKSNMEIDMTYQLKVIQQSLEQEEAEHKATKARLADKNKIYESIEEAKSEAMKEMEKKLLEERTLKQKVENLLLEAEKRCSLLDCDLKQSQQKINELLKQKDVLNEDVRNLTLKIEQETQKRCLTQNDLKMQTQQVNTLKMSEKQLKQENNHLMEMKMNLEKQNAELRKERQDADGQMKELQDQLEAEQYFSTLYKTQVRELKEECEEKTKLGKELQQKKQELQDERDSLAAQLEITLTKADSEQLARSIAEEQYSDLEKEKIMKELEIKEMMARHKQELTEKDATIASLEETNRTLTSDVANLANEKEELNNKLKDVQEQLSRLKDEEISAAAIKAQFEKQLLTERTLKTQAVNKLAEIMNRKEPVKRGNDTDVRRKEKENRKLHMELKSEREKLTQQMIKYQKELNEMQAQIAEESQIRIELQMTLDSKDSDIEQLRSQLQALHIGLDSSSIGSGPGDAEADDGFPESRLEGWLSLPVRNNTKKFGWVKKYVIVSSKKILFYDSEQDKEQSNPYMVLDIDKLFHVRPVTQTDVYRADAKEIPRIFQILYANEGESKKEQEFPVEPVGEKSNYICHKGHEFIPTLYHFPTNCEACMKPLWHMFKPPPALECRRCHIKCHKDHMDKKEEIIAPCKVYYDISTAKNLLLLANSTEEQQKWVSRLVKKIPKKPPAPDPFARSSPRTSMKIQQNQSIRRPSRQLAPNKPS

Q: `COc1cc(N2CCC3(CCN(C(=O)c4cnc(C)nc4)CC3)C2=O)ccc1-c1cn[nH]c1` [Example 121, 2-[3-methoxy-4-(1H-pyrazol-4-yl)phenyl]-8-(2-methylpyrimidine-5-carbonyl)-2,8-diazaspiro[4.5]decan-1-one] was tested. Which IC50 did it give?
A: 0.585 µM

Q: How did the IC50 turn out when `COc1cc(N2CCC3(CCN(C(=O)c4ccc(Cl)cc4F)CC3)C2=O)ccc1-c1cn[nH]c1` [Example 75, 8-(4-chloro-2-fluorobenzoyl)-2-[3-methoxy-4-(1H-pyrazol-4-yl)phenyl]-2,8-diazaspiro[4.5]decan-1-one] was run?
A: 0.05 µM

Q: `COc1cc(N2CCC3(CCN(C(=O)c4cc(C(C)C)n[nH]4)CC3)C2=O)ccc1-c1cn[nH]c1` [Example 110, 2-[3-methoxy-4-(1H-pyrazol-4-yl)phenyl]-8-[3-(propan-2-yl)-1H-pyrazole-5-carbonyl]-2,8-diazaspiro[4.5]decan-1-one] was tested. Which IC50 did it give?
A: 0.034 µM

Q: Which IC50 does the source give for `COc1cc(N2CCC3(CCN(C(=O)[C@@H]4C[C@H]4c4ccccc4)CC3)C2=O)ccc1-c1cn[nH]c1` [Example 91, 2-[3-methoxy-4-(1H-pyrazol-4-yl)phenyl]-8-[(1R,2R)-2-phenylcyclopropanecarbonyl]-2,8-diazaspiro[4.5]decan-1-one] here?
A: 0.436 µM

Q: How did the IC50 turn out when `COc1cc(N2CCC3(CCN(C(=O)c4cn5[nH]c(=O)cc5nc4C)CC3)C2=O)ccc1-c1cn[nH]c1` [Example 131, 2-[3-methoxy-4-(1H-pyrazol-4-yl)phenyl]-8-{5-methyl-2-oxo-1H,2H-pyrazolo[1,5-a]pyrimidine-6-carbonyl}-2,8-diazaspiro[4.5]decan-1-one] was run?
A: 2.09 µM

Q: For `COc1cc(N2CCC3(CCN(C(=O)c4ccc(N5CCN(Cc6cccn6C)CC5)cc4)CC3)C2=O)ccc1-c1cn[nH]c1` [Example 228, 2-[3-methoxy-4-(1H-pyrazol-4-yl)phenyl]-8-(4-{4-[(1-methyl-1H-pyrrol-2-yl)methyl]piperazin-1-yl}benzoyl)-2,8-diazaspiro[4.5]decan-1-one], which IC50 is on record?
A: 0.0009 µM

Q: Which IC50 does the source give for `COc1ccc(NC(=O)N2CCC3(CC2)CCN(c2ccc(-c4cn[nH]c4)c(OC)c2)C3=O)cc1` [Example 217, 2-[3-methoxy-4-(1H-pyrazol-4-yl)phenyl]-N-(4-methoxyphenyl)-1-oxo-2,8-diazaspiro[4.5]decane-8-carboxamide] here?
A: 2.46 µM

Q: With `COc1cc(N2CCC3(CCN(C(=O)c4ccc(N5CCN(C6CCCCC6)CC5)cc4)CC3)C2=O)ccc1-c1cn[nH]c1` [Example 226, 8-[4-(4-cyclohexylpiperazin-1-yl)benzoyl]-2-[3-methoxy-4-(1H-pyrazol-4-yl)phenyl]-2,8-diazaspiro[4.5]decan-1-one] as the molecule, how does the IC50 read?
A: 0.0007 µM

Q: For `COc1cc(N2CCC3(CCN(C(=O)c4ccc(-c5nn[nH]n5)cc4)CC3)C2=O)ccc1-c1cn[nH]c1` [Example 143, 2-[3-methoxy-4-(1H-pyrazol-4-yl)phenyl]-8-[4-(2H-1,2,3,4-tetrazol-5-yl)benzoyl]-2,8-diazaspiro[4.5]decan-1-one], which IC50 is on record?
A: 1.02 µM

Q: `CN1CCN(c2ccc(C(=O)N3CCC4(CC3)CCN(c3cccc(-c5ccc6[nH]ncc6c5)c3)C4=O)cc2)CC1` [Example 51, 2-[3-(1H-indazol-5-yl)phenyl]-8-[4-(4-methylpiperazin-1-yl)benzoyl]-2,8-diazaspiro[4.5]decan-1-one] was tested. Which IC50 did it give?
A: 0.014 µM

Q: With `COc1cc(N2CCC3(CCN(C(=O)c4ncc(Br)cn4)CC3)C2=O)ccc1-c1cn[nH]c1` [Example 116, 8-(5-bromopyrimidine-2-carbonyl)-2-[3-methoxy-4-(1H-pyrazol-4-yl)phenyl]-2,8-diazaspiro[4.5]decan-1-one] as the molecule, how does the IC50 read?
A: 0.088 µM

Q: With `COc1cc(N2CCC3(CCN(C(=O)c4cccc(C(F)(F)F)c4)CC3)C2=O)ccc1-c1cn[nH]c1` [Example 58, 2-[3-methoxy-4-(1H-pyrazol-4-yl)phenyl]-8-[3-(trifluoromethyl)benzoyl]-2,8-diazaspiro[4.5]decan-1-one] as the molecule, how does the IC50 read?
A: 0.144 µM

Q: How did the IC50 turn out when `COc1cc(N2CCC3(CCN(C(=O)c4ccc(N5CCOCC5)c(F)c4)CC3)C2=O)ccc1-c1cn[nH]c1` [Example 127, 8-[3-fluoro-4-(morpholin-4-yl)benzoyl]-2-[3-methoxy-4-(1H-pyrazol-4-yl)phenyl]-2,8-diazaspiro[4.5]decan-1-one] was run?
A: 0.0112 µM

Q: Which IC50 does the source give for `COc1cc(N2CCC3(CCN(C(=O)c4ccc(-n5cncn5)nc4)CC3)C2=O)ccc1-c1cn[nH]c1` [Example 145, 2-[3-methoxy-4-(1H-pyrazol-4-yl)phenyl]-8-[6-(1H-1,2,4-triazol-1-yl)pyridine-3-carbonyl]-2,8-diazaspiro[4.5]decan-1-one] here?
A: 0.054 µM

Q: With `O=C(c1ccc(OC(F)(F)F)cc1)N1CCC2(CC1)CCN(c1ccc(-c3cn[nH]c3)cc1)C2=O` [Example 10, 2-[4-(1H-pyrazol-4-yl)phenyl]-8-[4-(trifluoromethoxy)benzoyl]-2,8-diazaspiro[4.5]decan-1-one] as the molecule, how does the IC50 read?
A: 0.095 µM

Q: How did the IC50 turn out when `CN1CCN(c2ccc(C(=O)N3CCC4(CC3)CCN(c3ccc(-c5ccnc(O)c5)cc3)C4=O)cc2)CC1` [Example 32, 2-[4-(2-hydroxypyridin-4-yl)phenyl]-8-[4-(4-methylpiperazin-1-yl)benzoyl]-2,8-diazaspiro[4.5]decan-1-one] was run?
A: 0.054 µM

Q: Which IC50 does the source give for `COc1cc(N2CCC3(CCN(C(=O)c4nnc(-c5ccccn5)[nH]c4=O)CC3)C2=O)ccc1-c1cn[nH]c1` [Example 125, 2-[3-methoxy-4-(1H-pyrazol-4-yl)phenyl]-8-[5-oxo-3-(pyridin-2-yl)-4,5-dihydro-1,2,4-triazine-6-carbonyl]-2,8-diazaspiro[4.5]decan-1-one] here?
A: 0.026 µM

Q: `COc1cc(N2CCC3(CCN(C(=O)c4ccc(N5CCOCC5)cc4)CC3)C2=O)ccc1-c1cn[nH]c1` [Example 94, 2-[3-methoxy-4-(1H-pyrazol-4-yl)phenyl]-8-[4-(morpholin-4-yl)benzoyl]-2,8-diazaspiro[4.5]decan-1-one] was tested. Which IC50 did it give?
A: 0.002 µM

Q: Which IC50 does the source give for `COc1cc(N2CCC3(CCN(C(=O)c4ccc(N5CCN(Cc6cccc(NS(C)(=O)=O)c6)CC5)cc4)CC3)C2=O)ccc1-c1cn[nH]c1` [Example 235, N-(3-{[4-(4-{2-[3-methoxy-4-(1H-pyrazol-4-yl)phenyl]-1-oxo-2,8-diazaspiro[4.5]decane-8-carbonyl}phenyl)piperazin-1-yl]methyl}phenyl)methanesulfonamide] here?
A: 0.0002 µM

Q: With `COc1cc(N2CCC3(CCN(C(=O)c4ccc(N5CCN(Cc6ccc(-n7ccnc7)cc6)CC5)cc4)CC3)C2=O)ccc1-c1cn[nH]c1` [Example 220, 8-[4-(4-{[4-(1H-imidazol-1-yl)phenyl]methyl}piperazin-1-yl)benzoyl]-2-[3-methoxy-4-(1H-pyrazol-4-yl)phenyl]-2,8-diazaspiro[4.5]decan-1-one] as the molecule, how does the IC50 read?
A: 0.0003 µM

Q: Which IC50 does the source give for `COc1cc(N2CCC3(CCN(C(=O)c4cnc(C)cn4)CC3)C2=O)ccc1-c1cn[nH]c1` [Example 79, 2-[3-methoxy-4-(1H-pyrazol-4-yl)phenyl]-8-(5-methylpyrazine-2-carbonyl)-2,8-diazaspiro[4.5]decan-1-one] here?
A: 0.11 µM

Q: For `COc1cc(N2CCC3(CCN(C(=O)c4cc(C)cs4)CC3)C2=O)ccc1-c1cn[nH]c1` [Example 82, 2-[3-methoxy-4-(1H-pyrazol-4-yl)phenyl]-8-(4-methylthiophene-2-carbonyl)-2,8-diazaspiro[4.5]decan-1-one], which IC50 is on record?
A: 0.109 µM

Q: `COC(=O)c1ccc(S(=O)(=O)N2CCC3(CCN(c4ccc(-c5cn[nH]c5)c(OC)c4)C3=O)CC2)o1` [Example 208, methyl 5-({2-[3-methoxy-4-(1H-pyrazol-4-yl)phenyl]-1-oxo-2,8-diazaspiro[4.5]decan-8-yl}sulfonyl)furan-2-carboxylate] was tested. Which IC50 did it give?
A: 2.07 µM

Q: Which IC50 does the source give for `O=C(c1ccccc1)N1CCC2(CCN(c3ccc(-c4cn[nH]c4)cc3)C2=O)C1` (centres unmarked) [Example 42, 7-benzoyl-2-[4-(1H-pyrazol-4-yl)phenyl]-2,7-diazaspiro[4.4]nonan-1-one] here?
A: 1.22 µM

Q: For `COc1cc(N2CCC3(CCN(S(=O)(=O)c4ccc5ncsc5c4)CC3)C2=O)ccc1-c1cn[nH]c1` [Example 211, 8-(1,3-benzothiazole-6-sulfonyl)-2-[3-methoxy-4-(1H-pyrazol-4-yl)phenyl]-2,8-diazaspiro[4.5]decan-1-one], which IC50 is on record?
A: 0.046 µM

Q: Which IC50 does the source give for `CCc1ccc(C(=O)N2CCC3(CC2)CCN(c2ccc(-c4cn[nH]c4)c(OC)c2)C3=O)cc1` [Example 20, 8-(4-ethylbenzoyl)-2-[3-methoxy-4-(1H-pyrazol-4-yl)phenyl]-2,8-diazaspiro[4.5]decan-1-one] here?
A: 0.05 µM

Q: For `COc1cc(N2CCC3(CCN(C(=O)c4ccc(-n5ccncc5=O)cc4)CC3)C2=O)ccc1-c1cn[nH]c1` [Example 146, 2-[3-methoxy-4-(1H-pyrazol-4-yl)phenyl]-8-[4-(2-oxo-1,2-dihydropyrazin-1-yl)benzoyl]-2,8-diazaspiro[4.5]decan-1-one], which IC50 is on record?
A: 0.012 µM

Q: With `COc1cc(N2CCC3(CCN(C(=O)c4ccc(-c5ccccc5)cc4)CC3)C2=O)ccc1-c1cn[nH]c1` [Example 61, 8-{[1,1′-biphenyl]-4-carbonyl}-2-[3-methoxy-4-(1H-pyrazol-4-yl)phenyl]-2,8-diazaspiro[4.5]decan-1-one] as the molecule, how does the IC50 read?
A: 0.018 µM

Q: With `COc1cccc(S(=O)(=O)N2CCC3(CCN(c4ccc(-c5cn[nH]c5)c(OC)c4)C3=O)CC2)c1` [Example 207, 2-[3-methoxy-4-(1H-pyrazol-4-yl)phenyl]-8-(3-methoxybenzenesulfonyl)-2,8-diazaspiro[4.5]decan-1-one] as the molecule, how does the IC50 read?
A: 0.266 µM

Q: How did the IC50 turn out when `COc1cnc(C(=O)N2CCC3(CC2)CCN(c2ccc(-c4cn[nH]c4)c(OC)c2)C3=O)cn1` [Example 101, 2-[3-methoxy-4-(1H-pyrazol-4-yl)phenyl]-8-(5-methoxypyrazine-2-carbonyl)-2,8-diazaspiro[4.5]decan-1-one] was run?
A: 0.086 µM

Q: Which IC50 does the source give for `COc1cc(N2CCC3(CCN(C(=O)c4ccc(Oc5ncccn5)cc4)CC3)C2=O)ccc1-c1cn[nH]c1` [Example 105, 2-[3-methoxy-4-(1H-pyrazol-4-yl)phenyl]-8-[4-(pyrimidin-2-yloxy)benzoyl]-2,8-diazaspiro[4.5]decan-1-one] here?
A: 0.078 µM

Q: For `COc1cc(N2CCC3(CCN(C(=O)c4ccc(Oc5ccc(Cl)cc5)cc4)CC3)C2=O)ccc1-c1cn[nH]c1` [Example 112, 8-[4-(4-chlorophenoxy)benzoyl]-2-[3-methoxy-4-(1H-pyrazol-4-yl)phenyl]-2,8-diazaspiro[4.5]decan-1-one], which IC50 is on record?
A: 0.039 µM
